Experimental data published in patent publication US20050250801A1, “Method of treating cancer with azaspirane compositions” (priority 2003, published 2005).
Where two headings read alike, the source gives them in different places.

Tests used:
HCC-2998 = test: NCI in vitro SRB assay, Colon Cancer; type: cell-based; conditions: for CC50 / GI50: Homo sapiens
Method: (§1) An in vitro assay which tested the ability of N,N,-diethyl-8,8-dipropyl-2-azaspiro[4,5]decane-2-propanamine dimaleate (Compound 1) to inhibit the growth of known cancer cell lines was performed by the National Cancer Institute in accordance with standard procedures. See: Lin, Z. X., Hoult, J. R., and Raman, A. Sulphorhodamine B assay for measuring proliferation of a pigmented melanocyte cell line and its application to the evaluation of crude drugs used in the treatment of vitiligo. J Ethnopharmacol. 66: 141-150, 1999. Briefly, selected tumor cell lines were cultured in media containing five different concentrations of Compound 1. After 48 hours of continuous exposure, a sulforhodamine B (SRB) assay was used to estimate cell viability or growth via optical measurements.
(§2) From the measurements, the following values were determined: 1) the concentration of Compound 1 at which a tumor cell growth inhibition of 50% (relative to control) occurs (GI50), 2) the concentration of Compound 1 at which no growth occurs (total growth inhibition, TGI), and 3) the concentration of Compound 1 at which the […] (LC 50). […] FIG. 6 illustrates, graphically, tumor cell growth as a function of Compound 1 concentration of the scanned tumor cell lines.

KM12 = test: NCI in vitro SRB assay, Colon Cancer; type: cell-based; conditions: for CC50 / GI50: Homo sapiens
Method: as §1, §2

SW-620 = test: NCI in vitro SRB assay, Colon Cancer; type: cell-based; conditions: for CC50 / GI50: Homo sapiens
Method: as §1, §2

HCT-15 = test: NCI in vitro SRB assay, Colon Cancer; type: cell-based; conditions: for CC50 / GI50: Homo sapiens
Method: as §1, §2

HCT-116 = test: NCI in vitro SRB assay, Colon Cancer; type: cell-based; conditions: for CC50 / GI50: Homo sapiens
Method: as §1, §2

RPMI-8226 = test: NCI in vitro SRB assay, Leukemia; type: cell-based; conditions: for CC50 / GI50: Homo sapiens
Method: as §1, §2

Various Tumor Cell Lines = test: NCI in vitro SRB tumor cell line assay, panel summary; type: cell-based
Method: as §1, §2

HUVEC cells = test: Induction of apoptosis, DNA fragmentation analysis, HUVEC; type: cell-based, human; conditions: 16 hours treatment
Method: T84, CaCo-2 and HUVEC cells, respectively, were grown in 100 mm dishes for 7-9 days, culture media for HUVEC was EGM-2 (Clonetics, BioWhitaker Co.), until they reached semi-confluency. Cell monolayers were then treated for 12 hours (CaCo-2 and T84) and 16 hours (HUVEC), respectively, at the indicated concentrations of N,N,-diethyl-8,8-dipropyl-2-azaspiro[4,5]decane-2-propanamine dimaleate (Compound 1) in culture media. Cells were collected by trypsinization and the apoptotic DNA was isolated from these cells following the instructions of the DNA fragmentation analysis kit (Boehringer Mannheim Corp., Indianapolis, Ind.). The apoptotic DNA was evaluated using 1.5% agarose gel electrophoresis followed by staining with ethidium bromide. M denotes the lane containing molecular weight markers of DNA.

[1] = HCC-2998, Log10 conc -4.0 Moles/L
[2] = HCC-2998, Log10 conc -5.0 Moles/L
[3] = HCC-2998, Log10 conc -6.0 Moles/L
[4] = HCC-2998, Log10 conc -7.0 Moles/L
[5] = HCC-2998, Log10 conc -8.0 Moles/L
[6] = SW-620, Log10 conc -4.0 Moles/L
[7] = SW-620, Log10 conc -5.0 Moles/L
[8] = SW-620, Log10 conc -6.0 Moles/L
[9] = SW-620, Log10 conc -7.0 Moles/L
[10] = SW-620, Log10 conc -8.0 Moles/L
[11] = HCT-15, Log10 conc -4.0 Moles/L
[12] = HCT-15, Log10 conc -5.0 Moles/L
[13] = HCT-15, Log10 conc -6.0 Moles/L
[14] = HCT-15, Log10 conc -7.0 Moles/L
[15] = HCT-15, Log10 conc -8.0 Moles/L
[16] = HCT-116, Log10 conc -4.0 Moles/L
[17] = HCT-116, Log10 conc -5.0 Moles/L
[18] = HCT-116, Log10 conc -6.0 Moles/L
[19] = HCT-116, Log10 conc -7.0 Moles/L
[20] = HCT-116, Log10 conc -8.0 Moles/L
[21] = RPMI-8226, Log10 conc -4.0 Moles/L
[22] = RPMI-8226, Log10 conc -5.0 Moles/L
[23] = RPMI-8226, Log10 conc -6.0 Moles/L
[24] = RPMI-8226, Log10 conc -7.0 Moles/L
[25] = RPMI-8226, Log10 conc -8.0 Moles/L

CCCC1(CCC)CCC2(CCN(CCCN(CC)CC)C2)CC1.O=C(O)/C=C\C(=O)O.O=C(O)/C=C\C(=O)O [Compound 1, N,N,-diethyl-8,8-dipropyl-2-azaspiro[4,5]decane-2-propanamine dimaleate]
Log10 TGI (HCC-2998; HCC-2998): −6.62
TGI (HCC-2998; HCC-2998): 239 nM
Mean Optical Densities (HCC-2998; [1]): 0.036
Percent Growth (HCC-2998; [1]): −84%
Mean Optical Densities (HCC-2998; [2]): 0.019
Percent Growth (HCC-2998; [2]): −92%
Mean Optical Densities (HCC-2998; [3]): 0.057
Percent Growth (HCC-2998; [3]): −74%
Mean Optical Densities (HCC-2998; [4]): 0.303
Percent Growth (HCC-2998; [4]): 45%
Mean Optical Densities (HCC-2998; [5]): 0.338
Percent Growth (HCC-2998; [5]): 64%
CC50 (HCC-2998; HCC 2998, read-out: LC50): 628 nM
CC50 (HCC-2998; HCC 2998, read-out: Log10 LC50 (converted)): 631 nM
GI50 (HCC-2998; HCC-2998, read-out: GI50): 54.9 nM
GI50 (HCC-2998; HCC-2998, read-out: Log10 GI50 (converted)): 55 nM
CC50 (KM12; KM12, read-out: LC50): 7130 nM
CC50 (KM12; KM12, read-out: Log10 LC50 (converted)): 7080 nM
GI50 (KM12; KM12, read-out: GI50): 1510 nM
GI50 (KM12; KM12, read-out: Log10 GI50 (converted)): 1510 nM
Log10 TGI (KM12; KM12): −5.48
TGI (KM12; KM12): 3290 nM
Mean Optical Densities (KM12; KM12, Log10 conc -4.0 Moles/L): 0.210
Percent Growth (KM12; KM12, Log10 conc -4.0 Moles/L): −52%
Mean Optical Densities (KM12; KM12, Log10 conc -5.0 Moles/L): 0.123
Percent Growth (KM12; KM12, Log10 conc -5.0 Moles/L): −72%
Mean Optical Densities (KM12; KM12, Log10 conc -6.0 Moles/L): 1.243
Percent Growth (KM12; KM12, Log10 conc -6.0 Moles/L): 77%
Mean Optical Densities (KM12; KM12, Log10 conc -7.0 Moles/L): 1.402
Percent Growth (KM12; KM12, Log10 conc -7.0 Moles/L): 92%
Mean Optical Densities (KM12; KM12, Log10 conc -8.0 Moles/L): 1.429
Percent Growth (KM12; KM12, Log10 conc -8.0 Moles/L): 94%
CC50 (SW-620; SW-620, read-out: LC50): 5170 nM
CC50 (SW-620; SW-620, read-out: Log10 LC50 (converted)): 5130 nM
GI50 (SW-620; SW-620, read-out: GI50): 1380 nM
GI50 (SW-620; SW-620, read-out: Log10 GI50 (converted)): 1380 nM
Log10 TGI (SW-620; SW-620): −5.57
TGI (SW-620; SW-620): 2670 nM
Mean Optical Densities (SW-620; [6]): −0.016
Percent Growth (SW-620; [6]): −100%
Mean Optical Densities (SW-620; [7]): −0.002
Percent Growth (SW-620; [7]): −100%
Mean Optical Densities (SW-620; [8]): 0.789
Percent Growth (SW-620; [8]): 75%
Mean Optical Densities (SW-620; [9]): 0.948
Percent Growth (SW-620; [9]): 95%
Mean Optical Densities (SW-620; [10]): 0.948
Percent Growth (SW-620; [10]): 95%
Log10 TGI (HCT-15; HCT-15): −5.87
TGI (HCT-15; HCT-15): 1340 nM
Mean Optical Densities (HCT-15; [11]): −0.026
Percent Growth (HCT-15; [11]): −100%
Mean Optical Densities (HCT-15; [12]): −0.027
Percent Growth (HCT-15; [12]): −100%
Mean Optical Densities (HCT-15; [13]): 0.371
Percent Growth (HCT-15; [13]): 14%
Mean Optical Densities (HCT-15; [14]): 0.819
Percent Growth (HCT-15; [14]): 75%
Mean Optical Densities (HCT-15; [15]): 0.878
Percent Growth (HCT-15; [15]): 83%
CC50 (HCT-15; HCT-15, read-out: LC50): 3650 nM
CC50 (HCT-15; HCT-15, read-out: Log10 LC50 (converted)): 3630 nM
GI50 (HCT-15; HCT-15, read-out: GI50): 261 nM
GI50 (HCT-15; HCT-15, read-out: Log10 GI50 (converted)): 263 nM
Log10 TGI (HCT-116; HCT-116): −5.63
TGI (HCT-116; HCT-116): 2370 nM
Mean Optical Densities (HCT-116; [16]): 0.061
Percent Growth (HCT-116; [16]): −63%
Mean Optical Densities (HCT-116; [17]): 0.051
Percent Growth (HCT-116; [17]): −69%
Mean Optical Densities (HCT-116; [18]): 0.407
Percent Growth (HCT-116; [18]): 41%
Mean Optical Densities (HCT-116; [19]): 0.675
Percent Growth (HCT-116; [19]): 87%
Mean Optical Densities (HCT-116; [20]): 0.744
Percent Growth (HCT-116; [20]): 99%
CC50 (HCT-116; HCT-116, read-out: LC50): 6730 nM
CC50 (HCT-116; HCT-116, read-out: Log10 LC50 (converted)): 6760 nM
GI50 (HCT-116; HCT-116, read-out: GI50): 646 nM
GI50 (HCT-116; HCT-116, read-out: Log10 GI50 (converted)): 646 nM
CC50 (RPMI-8226; RPMI-8226, read-out: LC50): > 100000 nM
CC50 (RPMI-8226; RPMI-8226, read-out: Log10 LC50 (converted)): > 100000 nM
GI50 (RPMI-8226; RPMI-8226, read-out: GI50): 283 nM
GI50 (RPMI-8226; RPMI-8226, read-out: Log10 GI50 (converted)): 282 nM
Log10 TGI (RPMI-8226; RPMI-8226): −4.53
TGI (RPMI-8226; RPMI-8226): 29800 nM
Mean Optical Densities (RPMI-8226; [21]): 0.185
Percent Growth (RPMI-8226; [21]): −3%
Mean Optical Densities (RPMI-8226; [22]): 0.218
Percent Growth (RPMI-8226; [22]): 3%
Mean Optical Densities (RPMI-8226; [23]): 0.371
Percent Growth (RPMI-8226; [23]): 21%
Mean Optical Densities (RPMI-8226; [24]): 0.843
Percent Growth (RPMI-8226; [24]): 74%
Mean Optical Densities (RPMI-8226; [25]): 0.918
Percent Growth (RPMI-8226; [25]): 83%
Log10 GI50, MG_MID (Various Tumor Cell Lines; all cell lines of Table 2): −5.93
Log10 TGI, Delta (Various Tumor Cell Lines; all cell lines of Table 2): 1.18
Log10 TGI, MG_MID (Various Tumor Cell Lines; all cell lines of Table 2): −5.45
Log10 TGI, Range (Various Tumor Cell Lines; all cell lines of Table 2): 2.62
CC50 (Various Tumor Cell Lines; read-out: Log10 LC50, MG_MID (converted)): 8710 nM
DNA ladder formation (apoptosis) (HUVEC cells): formation of DNA laddering in a dose-dependent manner
